Each block holds one molecule with its values, some of them ahead of it.
Columns and labels:
[1] = tested on: Lemna paucicostata SH strain allene oxide synthase SHLpAOS, SEQ ID NO: 4; experiment: kinetic analysis of SHLpAOS with 9-HPOT (A234 decrease, Hanes-Woolf plot); format: biochemical
Method: (§1) SHLpAOS obtained from Lemna paucicostata SH strain was subjected to kinetic analysis. […] The substrate 9-HPOT was tested at the substrate concentration of 5-53 μM. The substrate 9-HPOT was added as an EtOH solution, and the final concentration of EtOH was adjusted to 1%. 100 μl of the reaction mixture was added into a cuvette, and a decrease in absorbance at 234 nm was scanned over time for 1 minute at an interval of 2 seconds using the SmartSpec Plus Spectrophotometer (Bio-Rad). From the A234 determined, the amount of the reaction product was calculated (e=25,000). […] It is believed that compared to AtAOS, SHLpAOS is a very useful AOS in the practical production of KODA.

[2] = tested on: Lemna paucicostata SH strain position 9-product specific lipoxygenase SHLpLOX (LpLOX-SH), SEQ ID NO: 3; settings: 40 mM phosphate buffer (pH 6.0), 0.1% Tween 80, 25° C; substrate 10-100 μM
Method: The sequence of SHLpLOSX obtained was introduced into a vector (pET23d, Novagen) for protein expression, and then transformed into Escherichia coli (BL21(DE3), Novagen), so as to allow the expression of SHLpLOX protein. Using this SHLpLOX protein, the activity test in KODA production was carried out. […] Using a reaction mixture comprising 40 mM phosphate buffer (pH 6.0) and 0.1% Tween 80, the analysis was carried out at a temperature of 25° C. […] The amount of the reaction product was calculated from the […] determined (e=25,000). Kinetic parameters were determined using the Hanes-Woolf plot ([S]/v versus [S] plot).

[3] = target: rice germ position 9-specific lipoxygenase r9-LOX1 (Oryza sativa, UniProt Q76I22); settings: 40 mM phosphate buffer (pH 6.0), 0.1% Tween 80, 25° C; substrate 10-100 μM
Method: Using a reaction mixture comprising 40 mM phosphate buffer (pH 6.0) and 0.1% Tween 80, the analysis was carried out at a temperature of 25° C. […] The amount of the reaction product was calculated from the [MUT] determined (e=25,000). Kinetic parameters were determined using the Hanes-Woolf plot ([S]/v versus [S] plot).

[4] = Activity test in KODA production: HPLC of linolenic acid hydroperoxide formed by LOX; format: biochemical; settings: 5 mM linolenic acid solution, pH 7, room temperature, 30 minutes; FIG. 4
Method: HPLC analysis was carried out with a column: Capcell pak C-18 UG120 (4.6×250 mm, Shiseido), by using column temperature: 40° C., mobile phase: 50% acetonitrile solution (0.02% TFA), flow rate: 1 ml/min, detection wavelength: 210 nm.

[5] = Kinetic analysis of 9-LOX, absorbance at 234 nm, Hanes-Woolf plot; format: biochemical; settings: SHLpLOX versus r9-LOX1
Method: The substrate α-linolenic acid was tested at the substrate concentration of 10-100 μM. 100 μl of the reaction mixture was added into a cuvette, and absorbance at 234 nm was scanned over time for 10 minutes at an interval of 15 seconds using the SmartSpec Plus Spectrophotometer (Bio-Rad).

[6] = substrate: CC/C=C\C/C=C\C=C\[C@H](CCCCCCCC(=O)O)OO; experiment: kinetic analysis of AtAOS with 9-HPOT (A234 decrease, Hanes-Woolf plot); format: biochemical, Arabidopsis thaliana; settings: other: 40 mM phosphate buffer (pH 7.5), 1% EtOH, 25° C, substrate 5-53 μM
Method: (§2) To 20 μl of this 9-HPOT reaction mixture, 0.32 ng of the SHLpAOS protein or A. thaliana-derived AOS (AtAOS) protein was added and reacted at room temperature for 10 minutes. After the reaction was over, the reaction was terminated by a heat treatment at 50° C. for 3 minutes. 10 μl of this solution was analyzed by HPLC. HPLC analysis was carried out with a column: Capcell pak C-18 UG120 (4.6×250 mm), and using mobile phase: 50% acetonitrile solution (0.02% TFA), flow rate: 1 ml/min, detection wavelength: 210 nm.
as §1

[7] = Kinetic analysis of AOS, decrease in absorbance at 234 nm, Hanes-Woolf plot; format: biochemical; settings: SHLpAOS versus AtAOS
Method: as §1

[8] = Activity test in KODA production: AOS reacted with 9-HPOT reaction mixture, HPLC; format: biochemical; settings: 0.32 ng protein, 20 μl 9-HPOT reaction mixture, room temperature, 10 minutes; FIG. 5
Method: as §2

[9] = 40 mM phosphate buffer (pH 7.5), 1% EtOH, 25° C, substrate 5-53 μM
[10] = higher in SHLpAOS than in AtAOS

rice germ position 9-specific lipoxygenase r9-LOX1, sequence (Q76I22 whole entry): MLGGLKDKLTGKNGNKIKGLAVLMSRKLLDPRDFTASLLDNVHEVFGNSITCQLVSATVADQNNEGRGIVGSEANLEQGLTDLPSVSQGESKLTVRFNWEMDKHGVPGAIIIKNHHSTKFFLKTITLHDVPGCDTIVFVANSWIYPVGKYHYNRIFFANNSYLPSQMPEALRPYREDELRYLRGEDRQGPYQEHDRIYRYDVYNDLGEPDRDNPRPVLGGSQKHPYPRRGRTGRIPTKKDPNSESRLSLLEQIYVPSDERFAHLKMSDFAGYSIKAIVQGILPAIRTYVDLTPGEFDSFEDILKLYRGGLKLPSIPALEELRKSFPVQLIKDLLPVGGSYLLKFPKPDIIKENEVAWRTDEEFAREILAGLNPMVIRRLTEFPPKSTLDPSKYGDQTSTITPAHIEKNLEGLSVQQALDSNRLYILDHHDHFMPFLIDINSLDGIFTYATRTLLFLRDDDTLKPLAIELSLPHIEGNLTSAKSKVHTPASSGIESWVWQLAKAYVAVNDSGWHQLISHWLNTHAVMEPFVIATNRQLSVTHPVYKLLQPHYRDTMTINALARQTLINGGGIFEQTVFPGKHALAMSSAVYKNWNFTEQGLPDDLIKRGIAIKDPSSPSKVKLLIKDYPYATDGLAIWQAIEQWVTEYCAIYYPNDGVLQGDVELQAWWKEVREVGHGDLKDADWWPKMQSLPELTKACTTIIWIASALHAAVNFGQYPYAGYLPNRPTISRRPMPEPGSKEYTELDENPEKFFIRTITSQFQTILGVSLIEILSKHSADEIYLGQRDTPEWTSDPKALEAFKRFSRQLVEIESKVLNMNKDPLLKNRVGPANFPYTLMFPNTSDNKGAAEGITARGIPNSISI

Km [1, 9]: 7.1 ± 1.9 µM
Molecule: CC/C=C\C/C=C\C=C\[C@H](CCCCCCCC(=O)O)OO [9-HPOT, 9-hydroperoxylinolenic acid]
Vmax [1, 9]: 4.7 ± 0.3 µmol/s
kcat [1, 9]: 709.2 ± 44.3 s⁻¹
Kcat, SHLpAOS relative to AtAOS [1, 10]: about 2.8 fold
Vmax, SHLpAOS relative to AtAOS [1, 10]: about 2.8 fold

Km [2]: 19.2 ± 4.1 µM
Vmax [2]: 3.0 ± 0.1 µmol/min
kcat [2]: 12.8 ± 0.538 s⁻¹
Km [3]: 22.9 ± 1.6 µM
Vmax [3]: 2.8 ± 0.6 µmol/min
kcat [3]: 10.24 ± 2.077 s⁻¹
Molecule: CC/C=C\C/C=C\C/C=C\CCCCCCCC(=O)O [α-linolenic acid, cis-9,12,15-octadecatrienoic acid]

B1: SHLpLOX: position 9-product specific lipoxygenase derived from Lemna paucicostata SH strain (SEQ ID NO: 3), expressed in Escherichia coli (protein, listed as Lemna paucicostata)
chain: MAGFLQKVTDNLLHKAAKISGTVVLVKSNVVGFNDFADSFLDGLHELLGSGITFQLVSATVGDPKNGNKGKLGKPALLEKWITTGTFLAAGDSGFKVNFEWDEQLGVPGAVIVKNNHHGEFFLKSLTLDGAPGPRSRIHFDCNSWVYPYSTYNYDRVFFANDTYLPGEMPEPLKAYRAAELVNLRGDGVTRELKEGDRIYAYDLYNDLGDPDSGKELARPILGGSEEYPYPRRARTGRKLTKTDPKSEQRLPLVFSLNVYVPRDERFGHLKMSDFLAYSLKALAQGLVPALDAATDITPFEFDTFQDVLNLYEGGINLPTTPALENFKKQIPFPLVKELFRSDGENLFRLPTPSVIKADKFAWRTDEEFGREMLAGVNPVCIRLLKKFPPVSSLDPSIYRNQNSTMIADQLEKNMNGLSVEEALKQKKLFILDHHDSLMPYLERINTFNKIYASRTVLLLQDDGTLKPLAIELSLPVKGEKGAVSKVYTPAEHGVEGAVWQLAKAYVAVNDSGVHQLISHWLNTHATIEPFSIALNRQLSVVHPIYKLLHPHFRDTMNINAFARQILINAGGILEMTVFPGKYAMEMSSVVYKGWKLTDQALPVDLLNRGVAEKDPSSGELRLLIEDYPYAVDGLDVWNAIEEWVKEYCAIYYPSDKTLQDDTEVQAWWKEVREVGHGDKKDETWWPAMETVAELTQTCSTIIWVASALHAAVNFAQYPYAGYLPNRPTISRRFMPEPGTPEYEELETDPDRAFLKTITSQLQTLIGVSLIEILSRHSSDEIYLGQRVSAEWTSDAKALAAFKAFGEKLITIENKIIEMNVDSSLKNRNGPVKVPYTFLYPNTTDYTRVGGLTGRGIPNSISI
LOX activity (linolenic acid hydroperoxide formed) compared with r9-LOX1 [4]: much higher activity than r9-LOX1
kcat/Km value relative to r9-LOX1 [5]: about 1.6 fold

B2: Arabidopsis thaliana allene oxide synthase AtAOS (Arabidopsis thaliana) (protein)
chain: SGSETPDLTVATRTGSKDLPIRNIPGNYGLPIVGPIKDRWDYFYDQGAEEFFKSRIRKYNSTVYRVNMPPGAFIAENPQVVALLDGKSFPVLFDVDKVEKKDLFTGTYMPSTELTGGYRILSYLDPSEPKHEKLKNLLFFLLKSSRNRIFPEFQATYSELFDSLEKELSLKGKADFGGSSDGTAFNFLARAFYGTNPADTKLKADAPGLITKWVLFNLHPLLSIGLPRVIEEPLIHTFSLPPALVKSDYQRLYEFFLESAGEILVEADKLGISREEATHNLLFATCFNTWGGMKILFPNMVKRIGRAGHQVHNRLAEEIRSVIKSNGGELTMGAIEKMELTKSVVYECLRFEPPVTAQYGRAKKDLVIESHDAAFKVKAGEMLYGYQPLATRDPKIFDRADEFVPERFVGEEGEKLLRHVLWSNGPETETPTVGNKQCAGKDFVVLVARLFVIEIFRRYDSFDIEVGTSPLGSSVNFSSLRKASF
Km [6]: 36.3 ± 1.3 µM
Vmax [6]: 102 µmol/min
kcat [6]: 256 ± 4.8 s⁻¹
kcat/Km [6]: 7e+06 ± 3.8e+06 M⁻¹ s⁻¹

B3: SHLpAOS: allene oxide synthase derived from Lemna paucicostata SH strain (SEQ ID NO: 4), expressed in Escherichia coli; printed as LpLOX-SH in Table 2 (protein, listed as Lemna paucicostata)
chain: MSVSQSDDKAALVPQKTIPGSYGIPFITPLKDRLDFFSNEYQFFQSRVESYGSTIVRLNAPPGPFMAKNPQVIAILDGKSFPVLFDTSKVEKKNIFTGTYMPSTALTGGYRVCAYLDPSEPNHTKIKQLLLNILFNRKDHVIPEFHRAYEKLFDDMDAEIAKSGKFVFNDHNDGAAFEFLGRLFFGVSPSETELGAGGVKDANLWLFSQLCPLMTLGFLPKLLEDLLLHTFPLPPFLFKGKYQAIYKYISSVATDALTMAENLGLSREEAAHNLLFAVCFNSLGGVKVLFPGILRYIAQAGKNLQASLVSEVRSAVSSTGGELTIEALEKMPLTKSVVYESLRLDPPVKYQYGVVKKDMVIESHDRSYEVKAGETLFGYQPFATRDKKIFGPDADNFVAERFIGEEGAKVLRFVVWSNGPETTDPTPVDKQCPGKNLVVLISRLLVAEFFLRYDFFDAEIGAVPLAVKTTITSLTKATTR
affinity for 9-HPOT (Km) relative to AtAOS [7]: about 5 fold
kcat/Km value relative to AtAOS [7]: about 14 fold
AOS activity relative to AtAOS protein [8]: ~7 fold

From patent publication US20130029391A1, “METHOD OF PREPARING KODA USING LEMNA PAUCICOSTATA” (priority 2010, published 2013)
